According to patent publication US20170304386A1, “METHOD FOR INHIBITING SURVIVAL, TUMORIGENESIS AND METASTASIS OF CANCER CELLS AND/OR CANCER STEM CELLS” (priority 2014, published 2017):

Test system: S727 phosphorylation of STAT3
Test: Western blot analysis of STAT3 S727 phosphorylation in CCS cells
Format: cell-based, human
Method: FIGS. 7a-7m show the PP2A regulates STAT3 activation at S727 and mediates suspension survival ability in TICs. […] The results are expressed as mean±SD of three independent experiments. Asterisks indicate significant differences determined by student's t-test. Bar=20 μm.
Cells were lysed and protein was extracted using M-PER (Pierce, Rockford, Ill.) plus protease inhibitor cocktail (Pierce), and the protein concentrations were determined by the BCA assay (Pierce). Aliquots of protein lysates were separated on SDS-10% polyacrylamide gels and transferred onto poly-vinylidenedifluoride (PVDF) membrane, which was blocked with 5% milk (Bio-Rad, Richmond, Calif.) in TBST. The membrane was then hybridized with primary antibodies followed by corresponding secondary antibodies, and then detected using a chemiluminescence assay (Millipore, Billerica, Mass.). Membranes were exposed to X-ray film to visualize the bands (Amersham Pharmacia Biotech, Piscataway, N.J.). Antibodies against pSTAT3 (S727) (1:1000), pSTAT3 (Y705) (1:1000), STAT3 (1:2000), PP2A C subunit (1:2000), pAkt (S473) (1:1000), β-tubulin (1:2000), Flag (1:2000), pAkt (T308) (1:1000), Akt (1:2000), ERK (1:2000), pP38 (T180 and Y182) (1:1000), P38 (1:2000), pJNK (1:1000), and pmTOR (S2448) (1:1000) were purchased from Cell Signaling Technologies. Antibodies against pPP2A (Y307) (1:2000), Oct4 (1:500), Nanog (1:500), Histone H1 (1:1000), and Sox2 (1:500) were purchased from Santa Cruz Biotechnology Inc. Antibodies against pFAK (Y397) (1:1000) were purchased from GeneTex (San Antonio, Tex.). Antibody against Col17a1 was purchased from Abcam. Antibody against Laminin y2 (1:1000) was purchased from Chemicon (Temecula, Calif.). Antibody against cleaved-caspase 3 (1:1000) was purchased from Epitomics (Burlingame, Calif.). Antibody against pERK (1:1000) was purchased from Biosource (Camerillo, Calif.).

[1] = CCS bulk cancer cells, 0, 0.1, 0.5, 1 nM OA for 1 hour or 0, 5, 10, 15 nM CA for 30 min

COC[C@@H]([C@H](O)[C@H](O)C(=O)NCC[C@H](C)c1nc(/C=C/C[C@@H]2O[C@]3(C[C@@H](O)[C@@H]2C)O[C@H]([C@H](C[C@H](O)[C@H](C)[C@H](O)[C@H](C)/C=C(C)/C(C)=C/C=C/C(C)=C\C#N)OC)[C@H](OP(=O)(O)O)C3(C)C)co1)N(C)C [calyculin A]
S727 phosphorylation of STAT3 [1]: increased S727 phosphorylation of STAT3 in a dose-dependent manner

C=C1[C@@H](O)[C@@H]2O[C@]3(CC[C@H](/C=C/[C@@H](C)[C@@H]4CC(C)=C[C@@]5(O[C@H](C[C@@](C)(O)C(=O)O)CC[C@H]5O)O4)O3)CC[C@H]2O[C@@H]1[C@@H](O)C[C@H](C)[C@H]1O[C@@]2(CCCCO2)CC[C@H]1C [okadaic acid]
S727 phosphorylation of STAT3 [1]: increased S727 phosphorylation of STAT3 in a dose-dependent manner

CCCCCCCCCCCCCC=CC(O)C(CO)NC(=O)CCCCC (stereo not drawn) [ceramide C6]
S727 phosphorylation of STAT3 (CCS spheroid culture-enriched TICs, 50 nM ceramide C6 for 24 hours): reduced S727 phosphorylation of STAT3
